Measured values: US4596828A, “[(2-hydroxy-5-alkoxyphenyl)methylthio]phenylmethanol and derivatives thereof useful as anti-inflammatory agents” (Merck & Co., Inc., priority 1985, dated 1986)

Test system: inflammatory responses elicited by topically applied phorbol myristate acetate (PMA) or arachidonic acid (AA) in mouse ears
Assay: Topical mouse ear assay (TME): edema measured by wet weight after topical PMA or AA
Format: in vivo
Details: mean, N=5 mice/group
Experimental: The topical mouse ear assay (TME) was used to evaluate the novel compounds of the present invention for its effect on inflammatory responses elicited by topically applied phorbol myristate acetate (PMA) or topically applied archidonic acid (AA).
Method: The right ears of mice (5 mice per group) were treated topically with either […] or 1000 μg AA alone or with the test compound in 25 μl of vehicle. The vehicle was water/pyridine/acetone (1:2:97). A control group of mice received the vehicle only. The mice were allowed food and water ad libitum during the treatment period; 2 hours for AA and 4 hours for PMA. The mice were sacrificed by cervical dislocation and a 6 mm diameter disc of tissue punched from both the treated and untreated ears. The tissue biopsies were immediately weighed and the weight increase of the treated ear relative to the weight of the untreated ear determined.
All of the data are expressed as the mean ±SEM, N=5 mice/group.

## COc1ccc(O)c(CSc2ccccc2CO)c1 [Compound A, 2-[2-(Hydroxymethyl)phenylthiomethyl]-4-methoxyphenol]
Dosage 30 μg
  Edema (% inhibition): 12%
Dosage 50 μg
  Edema (% inhibition): 16%
Dosage 200 μg
  Edema (% inhibition): 55%
Dosage 300 μg
  Edema (% inhibition): 63%

## C[C@@H]1C[C@H]2[C@@H]3CCC4=CC(=O)C=C[C@]4(C)[C@@]3(F)[C@@H](O)C[C@]2(C)[C@@]1(O)C(=O)CO [Dexamethasone, reference compound]
Dosage 5 μg
  Edema (% inhibition): 60%

## COc1ccc2c(c1)c(CC(=O)O)c(C)n2C(=O)c1ccc(Cl)cc1 [Indomethacin, reference compound]
Dosage 150 μg
  Edema (% inhibition): 51%
